Source: DBAASP
Values after ≈ are worked out from the molar mass of the structure shown.

Key:
Assay in all cases: ≥ marks a high value that may be exact or a test limit, other limits are often not marked, values filed in µg/mL are converted to µM
[1] = test system: Clavibacter michiganensis subsp. michiganensis DSM 46294
[2] = test system: Pectobacterium carotovorum subsp. carotovorum DSM 30168
[3] = test system: Pseudomonas corrugata DSM 7228
[4] = test system: Pseudomonas syringae pv. syringae DSM 10604
[5] = test system: Pseudomonas syringae pv. tomato DC3000
[6] = test system: Xanthomonas vesicatoria DSM 50861
Escherichia coli JW0013 = test system: Escherichia coli JW0013
[7] = test system: Candida albicans NCPF 1467
[8] = test system: Escherichia coli NCTC 10418
[9] = test system: Staphylococcus aureus NCTC 10788

SMILES	MIC (Escherichia coli JW0013)	MIC [7]	MIC [8]	MIC [9]	other results
CC(C)C[C@H](NC(=O)[C@H](C)NC(=O)[C@H](CC(C)C)NC(=O)[C@H](CCCN=C(N)N)NC(=O)[C@H](CCCN=C(N)N)NC(=O)[C@@H](N)CCCCN)C(=O)N[C@@H](Cc1ccccc1)C(=O)N[C@@H](CCCN=C(N)N)C(=O)N[C@@H](CC(C)C)C(=O)N[C@@H](Cc1ccccc1)C(=O)N[C@@H](CCCN=C(N)N)C(=O)N[C@@H](CC(C)C)C(=O)N[C@@H](C)C(=O)N[C@@H](CC(C)C)C(=O)N[C@@H](CCCCN)C(=O)N[C@@H](CC(C)C)C(=O)N[C@H](C(=O)N[C@@H](CC(C)C)C(=O)N[C@@H](CCCCN)C(=O)N[C@@H](CCCCN)C(N)=O)C(C)C [KRRLALFRLFRLALKLVLKK]	–	–	–	–	MIC [1]: 1.01 µM (≈ 2.5 µg/mL); MIC [2]: 4.03 µM (≈ 10 µg/mL); MIC [3]: 4.03 µM (≈ 10 µg/mL); MIC [4]: 4.03 µM (≈ 10 µg/mL); MIC [5]: 1.01 µM (≈ 2.5 µg/mL); MIC [6]: 1.01 µM (≈ 2.5 µg/mL)
CC[C@H](C)[C@H](NC(=O)CNC(=O)[C@@H](NC(=O)[C@H](C)NC(=O)[C@@H](NC(=O)[C@H](Cc1cnc[nH]1)NC(=O)[C@@H]1CCCN1C(=O)[C@@H](NC(=O)[C@H](CCSC)NC(=O)[C@H](CO)NC(=O)[C@H](Cc1ccccc1)NC(=O)[C@@H](N)Cc1ccccc1)[C@@H](C)CC)[C@@H](C)CC)[C@@H](C)O)C(=O)N[C@@H](C)C(=O)N[C@@H](CO)C(=O)N[C@@H](CC(C)C)C(=O)N[C@H](C(=O)N[C@@H](CCCCN)C(=O)N[C@@H](CC(N)=O)C(=O)N[C@@H](CC(C)C)C(N)=O)C(C)C [FFSMIPHIATGIASLVKNL]	–	31.1 µM (≈ 64 µg/mL)	≥ 249 µM	15.5 µM (≈ 32 µg/mL)	–
CC[C@H](C)[C@H](NC(=O)CNC(=O)CNC(=O)[C@H](C)NC(=O)[C@@H](NC(=O)[C@H](Cc1cnc[nH]1)NC(=O)[C@@H]1CCCN1C(=O)[C@@H](NC(=O)[C@H](CCSC)NC(=O)[C@H](CO)NC(=O)[C@H](CC(C)C)NC(=O)[C@@H](N)Cc1ccccc1)[C@@H](C)CC)[C@@H](C)CC)C(=O)N[C@@H](C)C(=O)N[C@@H](CO)C(=O)N[C@@H](CC(C)C)C(=O)N[C@H](C(=O)N[C@@H](CCCCN)C(=O)N[C@@H](CC(N)=O)C(=O)N[C@@H](CC(C)C)C(N)=O)C(C)C [FLSMIPHIAGGIASLVKNL]	–	≥ 32.3 µM	≥ 258 µM	16.2 µM (≈ 32 µg/mL)	–
CSCC[C@H](NC(=O)CN)C(=O)N[C@@H](CCCN=C(N)N)C(=O)N1CCC[C@H]1C(=O)N1CCC[C@H]1C(=O)N[C@@H](Cc1c[nH]c2ccccc12)C(=O)N[C@@H](Cc1ccccc1)C(N)=O [GMRPPWF]	–	≥ 144 µM	≥ 575 µM	≥ 288 µM	–

Second part, led by results:

MIC (Escherichia coli JW0013)	MIC [7]	MIC [8]	MIC [9]	SMILES	other results
1.36 µM (≈ 3.3 µg/mL)	–	–	–	CC[C@H](C)[C@H](NC(=O)[C@H](CCCN=C(N)N)NC(=O)[C@H](CCCN=C(N)N)NC(=O)[C@@H]1CCCN1C(=O)[C@@H]1CCCN1C(=O)[C@H](CCCN=C(N)N)NC(=O)[C@@H]1CCCN1C(=O)[C@H](CCCN=C(N)N)NC(=O)[C@@H]1CCCN1C(=O)[C@H](CC(C)C)NC(=O)[C@H](Cc1ccc(O)cc1)NC(=O)[C@H](CCCCN)NC(=O)[C@@H]1CCCN1C(=O)[C@H](CCCCN)NC(=O)[C@H](CC(=O)O)NC(=O)[C@@H](N)C(C)C)C(=O)N[C@@H](Cc1ccc(O)cc1)C(=O)N[C@@H](CC(N)=O)C(=O)N[C@@H](CCCN=C(N)N)C(N)=O [VDKPKYLPRPRPPRRIYNR]	–
1.37 µM (≈ 3.3 µg/mL)	–	–	–	CC[C@H](C)[C@H](NC(=O)[C@H](CCCN=C(N)N)NC(=O)[C@H](CCCN=C(N)N)NC(=O)[C@@H]1CCCN1C(=O)[C@@H]1CCCN1C(=O)[C@H](CCCN=C(N)N)NC(=O)[C@@H]1CCCN1C(=O)[C@H](CCCN=C(N)N)NC(=O)[C@@H]1CCCN1C(=O)[C@H](CC(C)C)NC(=O)[C@H](Cc1ccc(O)cc1)NC(=O)[C@H](CC(=O)O)NC(=O)[C@@H]1CCCN1C(=O)[C@H](CCCCN)NC(=O)[C@H](CC(=O)O)NC(=O)[C@@H](N)C(C)C)C(=O)N[C@@H](Cc1ccc(O)cc1)C(=O)N[C@@H](CC(N)=O)C(=O)N[C@@H](CCCN=C(N)N)C(N)=O [VDKPDYLPRPRPPRRIYNR]	–
